Results published in patent US20240067672A1, “FLAVONE DERIVATIVE FOR TREATING TUMORS AND USE THEREOF” (SICHUAN FUSHENGYUAN TECHNOLOGY CO., LTD, priority 2019, published 2024).
Converted amounts (≈) assume the structure as drawn. Like-named read-outs stand apart in the source and are kept apart here.

What was measured:
HepG2 hepatoma cells = test: Anti-tumor activity in vitro, MTT method, HepG2; assay type: cell-based, human; settings: for IC50 compared with Icaritin, HepG2 72 h: HepG2, 72 h after administration
Experimental: (§1) The effects of Icaritin and its derivatives on the activities of HepG2 and SMMC7721 hepatoma cells were investigated by a MTT method. […] After reaction for 48, 7 2 h, each well was added with 20 μL 5 mg/mL, of MTT solution, and incubated in a cell incubator for 3-4 h. Then the liquid in the well plates was sucked to discard. Each well was added with 150 μL of dimethyl sulfoxide (DMSO), and shaken on an enzyme-labeled instrument for 30 s at ambient temperature so that the Formazan crystals were dissolved sufficiently. The absorbance value A of each well at 570 nm was detected by the enzyme-labeled instrument, and the experiment was repeated for 3 times.

[1] = Determination of solubility (HPLC); assay type: physicochemical; settings: for solubility: 37 °C, thermodynamic from solid
Experimental: About 1.325 mg of Icaritin and the synthesized derivative were weighed and dissolved in 1.5 mL methanol respectively, then diluted with methanol into solutions of 10, 20, 50, 100, 150, 200, 500 μg/mL, and filtered over an organic-system filter head of 0.45 μm into sample bottles, obtaining the samples for test. Four parts of Icaritin and the synthesized derivative were weighed respectively, 1.00 mg for each part, and placed into 1.5 mL EP tubes, and 1 mL of water, normal saline, PBS, and 0.1% Tween 80 were respectively added thereto. The obtained solutions were ultrasonicated for 1 h, placed in a water bath at 37° C. overnight, and centrifuged at 10000 r/min for 3 min to collect supernatants. The supernatants were taken into sample bottles and detected by HPLC. The experiments were conducted in parallel for three times. The detection of HPLC is conducted under conditions of a chromatographic column of waters Symmetry C18, a mobile phase of a solution of methanol and water with a ratio of 80:20, a flow rate of 1.0 mL/min, a column temperature of 30° C., a detection wavelength of 210 nm, a run time of 30 min, and a sample load of 20 μL.

SMMC7721 hepatoma cells = test: Anti-tumor activity in vitro, MTT method, SMMC7721; assay type: cell-based, human; settings: for IC50 compared with Icaritin, SMMC7721 72 h: SMMC7721, 72 h after administration
Experimental: as §1

[2] = HepG2, 48 h, MTT, read-out: IC50 HepG2 48 h
[3] = HepG2, 72 h, MTT, read-out: IC50 HepG2 72 h
[4] = SMMC7721, 48 h, MTT, read-out: IC50 SMMC7721 48 h
[5] = SMMC7721, 72 h, MTT, read-out: IC50 SMMC7721 72 h
[6] = Homo sapiens, HepG2, 48 h, MTT, read-out: IC50 HepG2 48 h
[7] = Homo sapiens, HepG2, 72 h, MTT, read-out: IC50 HepG2 72 h
[8] = aqueous with cosolvent or surfactant or cyclodextrin
[9] = Homo sapiens, SMMC-7721, SMMC7721, 48 h, MTT, read-out: IC50 SMMC7721 48 h
[10] = Homo sapiens, SMMC-7721, SMMC7721, 72 h, MTT, read-out: IC50 SMMC7721 72 h

SMILES	IC50 (HepG2 hepatoma cells; [2]) [µM]	IC50 (HepG2 hepatoma cells; [3]) [µM]	Solubility, 0.1% Tween 80 [1]	Solubility, Normal Saline [1]	Solubility, PBS [1]	Solubility, Water [1]	IC50 (SMMC7721 hepatoma cells; [4]) [µM]	IC50 (SMMC7721 hepatoma cells; [5]) [µM]	IC50 compared with Icaritin, HepG2 72 h (HepG2 hepatoma cells)	IC50 (HepG2 hepatoma cells; [6]) [µM]	IC50 (HepG2 hepatoma cells; [7]) [µM]	IC50 (SMMC7721 hepatoma cells; [9]) [µM]	IC50 (SMMC7721 hepatoma cells; [10]) [µM]	IC50 compared with Icaritin, SMMC7721 72 h (SMMC7721 hepatoma cells)	other results
COc1ccc(-c2oc3c(CC=C(C)C)c(O)cc(O)c3c(=O)c2OC(=O)CCC(=O)OCCCCOCc2cn(CCOCCOC3OC(CO)C(O)C(O)C3O)nn2)cc1 (stereo not drawn) [Compound 89]	> 100	> 100	Insoluble	Insoluble	Insoluble	Insoluble	> 100	35.6 ± 1.36							
COc1ccc(-c2oc3c(CC=C(C)C)c(O)cc(O)c3c(=O)c2OC(=O)CCC(=O)OCCOCc2cn(C3O[C@H](CO)[C@@H](O)[C@H](O)[C@H]3O)nn2)cc1 (stereo partly drawn) [Compound 71]			Insoluble	Insoluble	Insoluble	Insoluble									IC50 (HepG2 hepatoma cells; Homo sapiens, HepG2, 48 h, read-out: IC50 HepG2 48 h): > 100 µM; IC50 (HepG2 hepatoma cells; Homo sapiens, HepG2, 72 h, read-out: IC50 HepG2 72 h): > 100 µM; IC50 (SMMC7721 hepatoma cells; Homo sapiens, SMMC-7721, 48 h, read-out: IC50 SMMC7721 48 h): > 100 µM; IC50 (SMMC7721 hepatoma cells; Homo sapiens, SMMC-7721, 72 h, read-out: IC50 SMMC7721 72 h): 29.7 ± 1.23 µM
COc1ccc(-c2oc3c(CC=C(C)C)c(O)cc(O)c3c(=O)c2OC(=O)CCC(=O)OCc2cn(CCOCCO[C@H]3O[C@@H](CO)[C@H](O)[C@@H](O)[C@@H]3O)nn2)cc1 [Compound 44]									less than that of Icaritin	> 100	10.1 ± 0.32	> 100	> 100		solubility compared with that of the bulk drug (Icaritin) [1]: improved effectively; solubility ([1]; aqueous buffer): 11 ± 1.04 µg/mL (≈ 13.8 µM); solubility [1, 8]: 11.2 ± 1.09 µg/mL (≈ 14 µM); solubility ([1]; saline or isotonic): 11 ± 1.03 µg/mL (≈ 13.8 µM); solubility ([1]; water): 11.3 ± 0.831 µg/mL (≈ 14.1 µM)
COc1ccc(-c2oc3c(CC=C(C)C)c(O)cc(O)c3c(=O)c2OC(=O)CCC(=O)OCCCCOCc2cn(C3OC(CO)C(O)C(O)C3O)nn2)cc1 (stereo not drawn) [Compound 87]	> 100	7.03 ± 0.67					> 100	12.7 ± 1.02	less than that of Icaritin					less than that of Icaritin	Solubility, 0.1% Tween 80 ([1]; 0.1% Tween 80, 37° C. overnight, n = 3): 1.358 ± 0.235 µg/mL (≈ 1.73 µM); Solubility, PBS ([1]; PBS, 37° C. overnight, n = 3): Insoluble; Solubility, Normal Saline ([1]; normal saline, 37° C. overnight, n = 3): 1.386 ± 0.743 µg/mL (≈ 1.77 µM); Solubility, Water ([1]; water, 37° C. overnight, n = 3): 1.277 ± 0.836 µg/mL (≈ 1.63 µM)
COc1ccc(-c2oc3c(CC=C(C)C)c(O)cc(O)c3c(=O)c2OC(=O)CCC(=O)OCc2cn(CCOC3OC(CO)C(O)C(O)C3O)nn2)cc1 (stereo not drawn) [Compound 39]	> 100	5.56 ± 0.6	13.819 ± 1.323 µg/mL (≈ 18.3 µM)	13.828 ± 1.123 µg/mL (≈ 18.3 µM)	13.825 ± 0.937 µg/mL (≈ 18.3 µM)	13.871 ± 1.031 µg/mL (≈ 18.4 µM)	> 100	6.65 ± 1.29	less than that of Icaritin					less than that of Icaritin	solubility compared with that of the bulk drug (Icaritin) [1]: improved effectively
COc1ccc(-c2oc3c(CC=C(C)C)c(O)cc(O)c3c(=O)c2OC(=O)CCC(=O)OCCN(CCOCc2cn(CCOCCO[C@H]3O[C@@H](CO)[C@H](O)[C@@H](O)[C@@H]3O)nn2)c2ccccc2)cc1 [Compound 105]					Insoluble				less than that of Icaritin	15.1 ± 1.32	7.69 ± 0.04	> 100	9.57 ± 1.2	less than that of Icaritin	IC50 compared with Icaritin, 48 and 72 h (HepG2 hepatoma cells; HepG2 and SMMC7721, 48 and 72 h): less than those of Icaritin; solubility compared with that of the bulk drug (Icaritin) [1]: improved effectively; solubility [1, 8]: 23.4 ± 1.12 µg/mL (≈ 24.3 µM); solubility ([1]; saline or isotonic): 23.9 ± 0.982 µg/mL (≈ 24.9 µM); solubility ([1]; water): 23.6 ± 1.23 µg/mL (≈ 24.5 µM)
COc1ccc(-c2oc3c(CC=C(C)C)c(O)cc(O)c3c(=O)c2OC(=O)CCC(=O)OCCN(CCOCc2cn(CCO[C@@H]3O[C@H](CO)[C@@H](O)[C@H](O)[C@H]3O)nn2)c2ccccc2)cc1 [Compound 104]			Insoluble	Insoluble	Insoluble	Insoluble			less than that of Icaritin	> 100	9.02 ± 0.27	> 100	12.9 ± 1.03	less than that of Icaritin	
COc1ccc(-c2oc3c(CC=C(C)C)c(O)cc(O)c3c(=O)c2OC(=O)CCC(=O)OCCOCCOCCOCCOCc2cn([C@H]3O[C@@H](CO)[C@H](O)[C@@H](O)[C@@H]3O)nn2)cc1 [Compound 50]				Insoluble						24.1 ± 3.06	25.3 ± 2.11	> 100	46.5 ± 3.43		solubility ([1]; aqueous buffer): 4.53 ± 0.347 µg/mL (≈ 5.11 µM); solubility [1, 8]: 4.64 ± 1.27 µg/mL (≈ 5.22 µM); solubility ([1]; water): 4.55 ± 0.324 µg/mL (≈ 5.13 µM)
COc1ccc(-c2oc3c(CC=C(C)C)c(O)cc(O)c3c(=O)c2OC(=O)CCC(=O)OCCCCOCc2cn(CCOC3OC(CO)C(O)C(O)C3O)nn2)cc1 (stereo not drawn) [Compound 88]	> 100	> 100	8.384 ± 1.363 µg/mL (≈ 10.1 µM)	7.399 ± 0.384 µg/mL (≈ 8.94 µM)	Insoluble	7.597 ± 1.038 µg/mL (≈ 9.18 µM)	> 100	40.5 ± 1.56							
COc1ccc(-c2oc3c(CC=C(C)C)c(O)cc(O)c3c(=O)c2OC(=O)CCC(=O)OCCCOCc2cn(CCOCCOC3OC(CO)C(O)C(O)C3O)nn2)cc1 (stereo not drawn) [Compound 97]	> 100	> 100	6.123 ± 0.931 µg/mL (≈ 7.14 µM)	5.036 ± 1.031 µg/mL (≈ 5.87 µM)	5.031 ± 0.901 µg/mL (≈ 5.86 µM)	5.474 ± 0.394 µg/mL (≈ 6.38 µM)	> 100	8.68 ± 0.52						less than that of Icaritin	
COc1ccc(-c2oc3c(CC=C(C)C)c(O)cc(O)c3c(=O)c2OC(=O)CCC(=O)OCCOCc2cn(CCOC3OC(CO)C(O)C(O)C3O)nn2)cc1 (stereo not drawn) [Compound 72]	> 100	> 100	5.697 ± 1.312 µg/mL (≈ 7.12 µM)	5.673 ± 1.031 µg/mL (≈ 7.09 µM)	5.656 ± 1.131 µg/mL (≈ 7.07 µM)	5.852 ± 0.748 µg/mL (≈ 7.32 µM)	> 100	> 100							
